Laboratory results reported in publication PMC6843404, “Conferring the Metabolic Self-Sufficiency of the CAM Plasmid of Pseudomonas putida ATCC 17453: The Key Role of Putidaredoxin Reductase” (Microorganisms, 2019).

Columns and labels:
Fred = target: T1, Fred (Pseudomonas putida, UniProt M4YFG7); test: spectrophotometric NADH oxidation at […] nm; assay type: biochemical; conditions: anaerobic
T1 construct: native, highly purified, chromosome-coded, 36 kDa homodimer
T1 sequence (M4YFG7 2-170): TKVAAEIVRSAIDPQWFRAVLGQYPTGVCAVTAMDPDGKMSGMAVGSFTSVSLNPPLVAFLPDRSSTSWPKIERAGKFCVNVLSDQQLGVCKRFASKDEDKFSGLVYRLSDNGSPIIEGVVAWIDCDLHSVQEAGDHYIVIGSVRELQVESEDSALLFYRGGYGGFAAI

PdR = target: T2, PdR (Pseudomonas putida, UniProt P16640); test: spectrophotometric NADH oxidation at […] nm; assay type: biochemical; conditions: anaerobic
T2 construct: gene camA
T2 sequence (P16640 1-422): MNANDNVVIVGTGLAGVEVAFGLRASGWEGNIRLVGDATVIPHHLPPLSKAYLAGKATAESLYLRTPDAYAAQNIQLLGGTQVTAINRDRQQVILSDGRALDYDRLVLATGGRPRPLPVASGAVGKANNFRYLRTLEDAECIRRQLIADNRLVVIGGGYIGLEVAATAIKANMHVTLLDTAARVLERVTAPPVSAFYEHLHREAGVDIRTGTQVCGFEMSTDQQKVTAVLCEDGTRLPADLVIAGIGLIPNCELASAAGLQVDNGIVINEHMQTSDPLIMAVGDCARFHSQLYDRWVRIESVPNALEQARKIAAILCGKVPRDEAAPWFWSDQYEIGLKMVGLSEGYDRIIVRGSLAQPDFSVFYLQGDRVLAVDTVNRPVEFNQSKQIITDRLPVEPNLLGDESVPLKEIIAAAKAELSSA

SMILES | spectrophotometric NADH oxidation at 340 nm (Fred; NADH as co-substrate) | spectrophotometric NADH oxidation at 340 nm (PdR; NADH as co-substrate) | spectrophotometric NADH oxidation at 340 nm (Fred; FMN as co-substrate) | spectrophotometric NADH oxidation at 340 nm (PdR; FMN as co-substrate)
Cc1cc2nc3c(=O)[nH]c(=O)nc-3n(C[C@H](O)[C@H](O)[C@H](O)COP(=O)(O)O)c2cc1C [FMN] | measuring the initial rate of enzyme-catalysed reduction of FMN by NADH | measuring the initial rate of enzyme-catalysed reduction of FMN by NADH | – | –
NC(=O)C1=CN([C@@H]2O[C@H](COP(=O)(O)OP(=O)(O)OC[C@H]3O[C@@H](n4cnc5c(N)ncnc54)[C@H](O)[C@@H]3O)[C@@H](O)[C@H]2O)C=CC1 [NADH] | – | – | measuring the initial rate of enzyme-catalysed reduction of FMN by NADH | measuring the initial rate of enzyme-catalysed reduction of FMN by NADH
